Measurements as given in ChEMBL document CHEMBL1201862, “PubChem BioAssay data set” (2004).
Values belong to the molecule of their own block, whether it stands above or below them. Active and inactive are the calls of the source.

Key:
[1] = biological target: Neurotensin receptor type 1 (Homo sapiens, UniProt P30989); type: functional;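 further: Image-based confirmatory dose-response assay measuring agonist activity at NTR1; NTR1-expressing U2OS osteosarcoma cells imaged for beta-arrestin GFP spot formation; agonist potency where compounds increase beta-arrestin recruitment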
Neurotensin receptor type 1, sequence (P30989 whole entry): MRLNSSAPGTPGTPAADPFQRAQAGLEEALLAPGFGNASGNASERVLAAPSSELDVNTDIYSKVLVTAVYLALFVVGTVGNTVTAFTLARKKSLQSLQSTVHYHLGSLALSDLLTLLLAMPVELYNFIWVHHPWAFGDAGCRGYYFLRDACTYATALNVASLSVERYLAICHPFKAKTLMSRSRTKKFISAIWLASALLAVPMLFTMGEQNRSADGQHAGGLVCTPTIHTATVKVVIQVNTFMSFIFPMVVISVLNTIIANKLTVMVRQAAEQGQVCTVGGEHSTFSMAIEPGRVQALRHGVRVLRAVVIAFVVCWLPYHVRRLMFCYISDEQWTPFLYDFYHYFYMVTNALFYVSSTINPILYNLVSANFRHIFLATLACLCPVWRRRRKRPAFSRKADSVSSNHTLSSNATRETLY

[2] = A549 cell cytotoxicity, dose response, cytotoxicity control, plate reader, cherry-pick, antagonist series (AID 743412); type: functional, cell-based
[3] = toxicity toward HepG2 liver cells – cell-based, plate reader, cherry-pick, antagonist series, cytotoxicity control, dose response (AID 743416); type: functional
[4] = blockers of bursicon-stimulated LGR2 cAMP reporter – cell-based, HEK293, CRE-luciferase reporter, cherry pick, set 2, dose response (AID 743343); type: functional;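 further: transfected cells were stimulated with diluted bursicon conditioned medium after compound addition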
[5] = viability loss in HEK293 cells – cell-based, plate reader, cherry-picked samples, cytotoxicity control, dose response (AID 743446); type: functional
[6] = biological target: Melanin-concentrating hormone receptor 1 (Homo sapiens, UniProt Q99705); experiment: Fluorescence-based counterscreen for antagonists of the G-protein coupled receptor 7 (GPR7): cell-based high throughput dose response assay to identify antagonists of the melanin-concentrating hormone receptor 1 (MCHR1).; type: functional
Melanin-concentrating hormone receptor 1, sequence (Q99705 whole entry): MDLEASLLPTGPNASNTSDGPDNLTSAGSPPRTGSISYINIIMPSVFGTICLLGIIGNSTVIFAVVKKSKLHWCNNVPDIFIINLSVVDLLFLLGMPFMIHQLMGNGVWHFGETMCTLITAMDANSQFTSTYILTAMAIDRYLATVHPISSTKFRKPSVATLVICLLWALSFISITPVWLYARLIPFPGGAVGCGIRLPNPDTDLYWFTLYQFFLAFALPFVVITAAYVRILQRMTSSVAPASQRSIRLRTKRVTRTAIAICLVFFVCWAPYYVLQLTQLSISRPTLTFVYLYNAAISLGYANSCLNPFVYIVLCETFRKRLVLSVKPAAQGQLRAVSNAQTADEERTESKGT

[7] = biological target: Eukaryotic translation initiation factor 4H (Homo sapiens, UniProt Q15056); experiment: inhibitors of translation initiation factor eIF4H – SAR follow-up (AID 435011); type: functional
[8] = biological target: Polyadenylate-binding protein 1 (Homo sapiens, UniProt P11940); experiment: PABP inhibition in translation initiation, SAR follow-up (AID 435018); type: functional
Polyadenylate-binding protein 1, sequence (P11940 whole entry): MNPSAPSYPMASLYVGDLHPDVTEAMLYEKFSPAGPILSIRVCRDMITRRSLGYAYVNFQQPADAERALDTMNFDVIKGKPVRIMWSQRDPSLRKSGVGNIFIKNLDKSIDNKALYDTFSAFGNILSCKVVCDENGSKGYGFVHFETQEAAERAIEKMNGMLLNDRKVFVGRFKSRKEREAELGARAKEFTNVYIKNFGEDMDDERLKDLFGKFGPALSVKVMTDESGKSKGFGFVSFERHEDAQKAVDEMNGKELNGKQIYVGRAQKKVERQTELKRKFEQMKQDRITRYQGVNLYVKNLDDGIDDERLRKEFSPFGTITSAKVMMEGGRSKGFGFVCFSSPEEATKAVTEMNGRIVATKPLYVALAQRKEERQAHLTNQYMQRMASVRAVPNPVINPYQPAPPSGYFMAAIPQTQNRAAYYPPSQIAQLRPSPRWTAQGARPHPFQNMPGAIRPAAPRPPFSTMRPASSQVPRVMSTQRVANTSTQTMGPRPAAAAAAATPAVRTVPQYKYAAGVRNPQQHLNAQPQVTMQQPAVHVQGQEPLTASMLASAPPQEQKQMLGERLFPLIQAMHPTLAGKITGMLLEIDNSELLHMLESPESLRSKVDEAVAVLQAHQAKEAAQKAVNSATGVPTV

Aspartyl aminopeptidase = Aspartyl aminopeptidase (Plasmodium falciparum 3D7, UniProt Q8I2J3)
Aspartyl aminopeptidase, sequence (Q8I2J3 whole entry): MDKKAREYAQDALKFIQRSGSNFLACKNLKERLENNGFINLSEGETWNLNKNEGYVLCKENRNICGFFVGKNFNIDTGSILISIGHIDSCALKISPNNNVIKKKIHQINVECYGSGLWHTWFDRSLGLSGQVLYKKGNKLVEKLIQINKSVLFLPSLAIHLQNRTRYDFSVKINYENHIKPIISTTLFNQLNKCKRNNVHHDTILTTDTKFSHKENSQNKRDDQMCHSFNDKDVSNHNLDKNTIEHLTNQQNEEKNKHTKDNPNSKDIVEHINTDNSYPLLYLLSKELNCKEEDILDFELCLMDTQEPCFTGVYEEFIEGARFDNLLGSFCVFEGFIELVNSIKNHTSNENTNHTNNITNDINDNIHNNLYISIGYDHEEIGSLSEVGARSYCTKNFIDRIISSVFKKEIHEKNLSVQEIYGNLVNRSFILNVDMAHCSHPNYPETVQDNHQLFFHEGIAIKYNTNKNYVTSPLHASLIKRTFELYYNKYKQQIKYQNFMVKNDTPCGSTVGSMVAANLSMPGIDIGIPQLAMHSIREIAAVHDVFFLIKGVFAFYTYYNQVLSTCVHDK

Procathepsin L = Procathepsin L (Homo sapiens, UniProt P07711)
Procathepsin L, sequence (P07711 whole entry): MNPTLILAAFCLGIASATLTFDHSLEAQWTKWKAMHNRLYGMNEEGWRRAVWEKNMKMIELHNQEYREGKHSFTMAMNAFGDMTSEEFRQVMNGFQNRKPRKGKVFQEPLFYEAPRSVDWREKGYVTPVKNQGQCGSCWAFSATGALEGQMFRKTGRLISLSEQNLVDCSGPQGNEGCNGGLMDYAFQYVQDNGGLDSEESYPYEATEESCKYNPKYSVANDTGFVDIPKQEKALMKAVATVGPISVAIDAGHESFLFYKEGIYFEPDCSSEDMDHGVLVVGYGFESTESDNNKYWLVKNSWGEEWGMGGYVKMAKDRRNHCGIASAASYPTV

[9] = mRNA 3' processing disruption, beta-gal signal increase – luminescence, S. cerevisiae SKY197-pL101, dose response (AID 2525); type: functional, cell-based
[10] = Luminescence Cell-Based Dose Confirmation HTS to Identify Inhibitors of Polyadenylation.; type: functional
[11] = biological target: T1, Microphthalmia-associated transcription factor (Homo sapiens, UniProt O75030); experiment: reducers of TRPM1 reporter luminescence, concentration series – cell-based, SK-MEL-5, cherry-picked, set 3, MITF inhibitor project, dose response (AID 493073); type: functional;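 further: SK-MEL-5 melanoma cells with luciferase driven by the MITF target TRPM1 promoter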
T1 sequence (O75030 whole entry): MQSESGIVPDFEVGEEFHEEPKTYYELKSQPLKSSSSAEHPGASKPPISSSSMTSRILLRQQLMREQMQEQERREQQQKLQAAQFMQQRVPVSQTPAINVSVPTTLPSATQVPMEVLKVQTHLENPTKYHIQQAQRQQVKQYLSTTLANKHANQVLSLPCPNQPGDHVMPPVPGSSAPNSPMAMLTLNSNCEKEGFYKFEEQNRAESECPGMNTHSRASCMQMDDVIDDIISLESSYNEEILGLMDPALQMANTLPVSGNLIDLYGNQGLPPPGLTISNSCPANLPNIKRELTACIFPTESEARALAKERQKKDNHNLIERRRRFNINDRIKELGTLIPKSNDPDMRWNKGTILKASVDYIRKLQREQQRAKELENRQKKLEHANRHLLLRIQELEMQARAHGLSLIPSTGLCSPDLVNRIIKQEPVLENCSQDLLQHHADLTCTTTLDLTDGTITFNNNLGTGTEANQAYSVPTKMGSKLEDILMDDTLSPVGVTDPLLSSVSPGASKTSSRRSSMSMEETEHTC

[12] = biological target: Heat shock protein HSP 90-alpha (Homo sapiens, UniProt P07900); type: functional, organism-based
Genome polyprotein = Genome polyprotein (dengue virus type 2, UniProt P29990); experiment: flavivirus cap methylation enzyme inhibition – biochemical, confirmation dose response, primary screen (AID 588689); type: functional
Genome polyprotein, sequence (P29990 2492-3391 limits assumed): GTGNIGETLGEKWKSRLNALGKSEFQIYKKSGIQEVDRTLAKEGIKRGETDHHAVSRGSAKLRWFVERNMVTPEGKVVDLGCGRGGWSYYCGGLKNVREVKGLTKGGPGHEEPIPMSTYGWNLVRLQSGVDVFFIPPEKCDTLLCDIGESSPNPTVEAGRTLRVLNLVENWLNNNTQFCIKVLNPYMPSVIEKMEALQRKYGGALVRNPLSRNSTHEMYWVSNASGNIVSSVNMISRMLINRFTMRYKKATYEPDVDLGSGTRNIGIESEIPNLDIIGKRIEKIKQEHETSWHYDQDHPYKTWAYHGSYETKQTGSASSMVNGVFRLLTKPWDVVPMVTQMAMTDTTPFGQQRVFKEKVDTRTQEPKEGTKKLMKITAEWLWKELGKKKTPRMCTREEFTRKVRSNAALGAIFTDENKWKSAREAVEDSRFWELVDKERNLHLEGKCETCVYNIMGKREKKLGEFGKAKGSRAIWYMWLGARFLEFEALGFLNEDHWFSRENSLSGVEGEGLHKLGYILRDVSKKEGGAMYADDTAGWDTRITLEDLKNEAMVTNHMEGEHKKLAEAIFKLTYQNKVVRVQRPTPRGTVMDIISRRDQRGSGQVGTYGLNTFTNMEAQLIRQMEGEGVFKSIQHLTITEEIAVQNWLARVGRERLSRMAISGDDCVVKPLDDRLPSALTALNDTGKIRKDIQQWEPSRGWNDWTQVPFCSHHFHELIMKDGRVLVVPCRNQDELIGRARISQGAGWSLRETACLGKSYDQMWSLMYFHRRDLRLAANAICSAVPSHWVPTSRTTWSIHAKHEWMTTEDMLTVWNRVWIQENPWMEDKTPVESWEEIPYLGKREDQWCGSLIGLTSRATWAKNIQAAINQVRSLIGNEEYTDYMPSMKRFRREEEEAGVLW

Cytochrome P450 2C9 = Cytochrome P450 2C9 (Homo sapiens, UniProt P11712); conditions: Potency
Cytochrome P450 2C9, sequence (P11712 whole entry): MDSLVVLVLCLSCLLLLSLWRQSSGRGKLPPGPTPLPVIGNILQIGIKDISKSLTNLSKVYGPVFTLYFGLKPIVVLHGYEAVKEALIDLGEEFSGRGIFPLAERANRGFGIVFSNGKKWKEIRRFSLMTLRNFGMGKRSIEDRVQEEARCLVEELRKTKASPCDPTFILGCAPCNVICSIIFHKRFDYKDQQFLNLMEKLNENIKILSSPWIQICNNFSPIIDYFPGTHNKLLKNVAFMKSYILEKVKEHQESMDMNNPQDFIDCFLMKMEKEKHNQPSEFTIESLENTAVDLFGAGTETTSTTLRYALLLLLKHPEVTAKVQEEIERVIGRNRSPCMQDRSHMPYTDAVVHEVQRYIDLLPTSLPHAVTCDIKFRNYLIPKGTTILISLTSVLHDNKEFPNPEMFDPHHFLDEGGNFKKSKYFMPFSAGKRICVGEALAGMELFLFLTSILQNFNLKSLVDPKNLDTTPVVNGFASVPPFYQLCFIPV

SMILES: O=C(Nc1ccc(N2CCN(C(=O)c3ccccc3)CC2)cc1)c1cc2ccccc2o1
- EC50 [1]: 24.4 µM (inactive)
- AC50 [2]: 45.5 µM (active)
- AC50 [3]: 5.12 µM (active)
- AC50 [4]: 5.93 µM (active)
- AC50 [5]: 16.8 µM (active)

SMILES: Cc1ccccc1CC1(CO)CCCN(C(=O)c2cc(Cl)ccc2F)C1 (stereo unspecified)
- IC50 [6]: > 14.6 µM (not active)

SMILES: Cc1ccc(C(=O)c2no[n+]([O-])c2C(=O)c2ccc(C)cc2)cc1
- EC50 [9]: 3.01 µM (active)
- EC50 [10]: 2.92 µM (active)
- AC50 [11]: 16.7 µM (active)
- AC50 [12]: 2.37 µM (active)
- IC50 (Genome polyprotein): > 100 µM (active)

SMILES: COc1cccc(-c2cc(=O)c3cc(O)ccc3o2)c1
- AC50 (Cytochrome P450 2C9): 25.1 µM (inconclusive)

Further lines, results first:

- IC50 [7]: > 100 µM (inactive)
- IC50 [8]: > 100 µM (inactive)
SMILES: COc1cc(C=NNC(=O)c2ccc(O)cc2)ccc1OCC(=O)Nc1cccc([N+](=O)[O-])c1

- IC50 (Aspartyl aminopeptidase): 1.49 µM (active)
- IC50 (Procathepsin L): > 59.6 µM (not active)
SMILES: Cc1cc(O)nc(SCC(=O)c2ccc(O)c(O)c2)n1
